According to patent US20160177395A1, “BIOMARKERS FOR THE PREDICTION OF RENAL INJURY” (priority 2007, published 2016):
Several values for one entry are separate records, joined by “and”; a condition that tells them apart may be missing. Identical values can stand only once.

System: kidney tissues of treated or untreated rats
Test: Real-time qRT-PCR of marker transcripts in kidney tissue panel, discovery stage (Table 22)
Type: in vivo, rat
Details: rat kidney, listed as Dox
Experimental: Before RT preparation the RNA was treated with DNA-free (Ambion, cat. No. AM1906) DNase treatment and removal—according to manufacturer protocol. DNase procedure was repeated until no DNA is detected in a PCR reaction using the RNA samples.
The mixture is then incubated for 5 min at 65° C. and then quickly chilled on ice. Thereafter, 20 μl of 5× SuperscriptII first strand buffer (Invitrogen, Cat. No. Y00146), 9.6 μl 0.1M DTT (Invitrogen, Cat. No. Y00147) and 160 units RNasin (Promega, Cat. No. N251A) are added, and the mixture is incubated for 10 min at 25° C., followed by further incubation at 42° C. for 2 min. […] The resulting cDNA is diluted 1:20 in TE buffer (10 mM Tris pH=8, 1 mM EDTA pH=8).
cDNA (5 μl), prepared as described above, is used as a template in Real-Time PCR reactions using the SYBR Green I assay (PE Applied Biosystem) with specific primers in 100 nM concentration if not indicated otherwise and UNG Enzyme (Eurogentech or equal) Amplification is effected as follows: 50° C. for 2 min, 95° C. for 10 min, and then 40 cycles of 95° C. for 15 sec, followed by 60° C. for 1 min (if not indicated otherwise). Amplification step is followed by dissociation step. Detection is performed by using the PE Applied Biosystem SDS 7000. The cycle in which the reactions achieved a threshold level (Ct) of fluorescence is registered and is used to calculate the relative transcript quantity in the RT reactions. Non-detected samples are assigned Ct value of 41 and are calculated accordingly. The relative quantity is calculated using the equation Q=efficiencŷ-Ct. The efficiency of the PCR reaction is calculated from a standard curve, created by using serial dilutions of several reverse transcription (RT) reactions. To minimize inherent differences in the RT reaction, the resulting relative quantities are normalized to normalization factor calculated as follows: […]
The relative quantity (Q) of each housekeeping gene in each sample is calculated as described above. In order to calculate the “relative Q relative to MED” each Q for each HSKP gene is divided by the median quantity of this gene in all panel samples. To finally achieve the normalization factor of each sample the geometric mean of all four “relative Q relative to MED” was calculated. The normalization factor was then used for further calculations.
The markers of the present invention were tested with regard to their expression in a panel of kidney tissues samples from treated and control rats. Unless otherwise noted, all experimental data relates to the novel polynucleotides and proteins of the present invention, named according to the segment being tested (as expression was tested through RT-PCR as described). Tests were then performed as described in the “Materials and Experimental Procedures” section above.
The qRT-PCR measurements were normalized according to each samples normalization factor as described in “RT Preparation and Real-Time qRT-PCR Analysis” and further multiplied by a constant factor for ease of viewing.

[1] = day1, individual animals (F and M)
[2] = day5, individual animals (F and M)
[3] = day28, individual animals (F and M)

In the case of `COc1cccc2c1C(=O)c1c(O)c3c(c(O)c1C2=O)C[C@@](O)(C(=O)CO)C[C@@H]3O[C@H]1C[C@H](N)[C@H](O)[C@H](C)O1` [Doxorubicin], the “RATRAB13X_DB71_seg11-13 normalized Real Time PCR” value [1] is reported as 1.1 and 0.9 and 1 and 0.88 and 1.09 and 0.86, the “RNU24174_DB71_seg8 normalized Real Time PCR” value [1] is reported as 0.29 and 0.35 and 0.31 and 0.48 and 0.49 and 0.36 and the “W41270_DB81_seg11 normalized Real Time PCR” value [1] is reported as 2.24 and 1.2 and 1.56 and 1.74 and 0.95 and 0.91. For the same compound, the “W64472_DB81_seg2 normalized Real Time PCR” value [1] was 1.58 and 1.09 and 1.15 and 0.86 and 0.77 and 0.56, the “W83813_DB81_seg27 normalized Real Time PCR” value [1] was 2.9 and 1.56 and 2 and 0.68 and 0.78 and 0.64 and the “AA686189_DB71_seg6 normalized Real Time PCR expression” value (day1, individual animals) was 0.59 and 0.49 and 0.39 and 0.78 and 0.4 and 0.26. The “AI045075_DB71_seg6 normalized Real Time PCR expression” value (day1, individual animals) was 1.12 and 1.21 and 0.78 and 0.61 and 0.64 and 3.12, the “AI454051_DB71_seg0 normalized Real Time PCR expression” value (day1, individual animals) was 1.2 and 1.05 and 1.54 and 0.8 (2×) and 1.03 and the “H31045_DB71_seg5 normalized Real Time PCR expression” value (day1, individual animals) was 1.15 and 0.3 and 1.95 and 0.23 and 0.32 and 0.75. The “H33998_DB71_seg19 normalized Real Time PCR” value [2] was 2.39 and 1.29 and 3.68 and 1.19 and 1.37, the “MUSCYCG1R_DB81_seg15-17 normalized Real Time PCR” value [2] was 1.51 and 1.97 and 3.17 and 1.65 and 2 and the “RATLRFI_DB71_seg9 normalized Real Time PCR” value [2] was 0.46 and 0.29 and 0.18 and 0.47 and 0.25. For the same compound, the “RATRAB13X_DB71_seg11-13 normalized Real Time PCR” value [2] was 1.17 and 1.16 and 0.94 and 0.7 and 0.83, the “RNU24174_DB71_seg8 normalized Real Time PCR” value [2] was 0.83 and 0.59 and 0.63 and 1.08 and 0.87 and the “W41270_DB81_seg11 normalized Real Time PCR” value [2] was 1.71 and 1.37 and 2.13 and 1.64 and 1.35. For the same compound, the “W64472_DB81_seg2 normalized Real Time PCR” value [2] was 1.97 and 1.36 and 2.36 and 3 and 2.54, the “W83813_DB81_seg27 normalized Real Time PCR” value [2] was 2.28 and 1.99 and 2.9 and 1.3 and 1.41 and the “AA686189_DB71_seg6 normalized Real Time PCR expression” value (day5, individual animals) was 1.2 and 0.6 and 0.51 and 0.48 and 0.38. For the same compound, the “AI045075_DB71_seg6 normalized Real Time PCR expression” value (day5, individual animals) was 0.93 (2×) and 2.05 and 0.76 and 0.57, the “AI454051_DB71_seg0 normalized Real Time PCR expression” value (day5, individual animals) was 1.17 and 1.35 and 1.44 and 0.3 and 0.95 and the “H31045_DB71_seg5 normalized Real Time PCR expression” value (day5, individual animals) was 1.86 and 1.19 and 0.52 and 0.35 and 1.41. For the same compound, the “H33998_DB71_seg19 normalized Real Time PCR” value [3] was 0.48 and 0.58 and 0.96 and 0.64 and 0.44 and 0.54, the “MUSCYCG1R_DB81_seg15-17 normalized Real Time PCR” value [3] was 1.07 and 1.52 and 1.26 and 0.99 and 0.98 and 1.28 and the “RATLRFI_DB71_seg9 normalized Real Time PCR” value [3] was 0.72 and 0.4 and 1.47 and 8.34 and 0.53 and 1.08. For the same compound, the “RATRAB13X_DB71_seg11-13 normalized Real Time PCR” value [3] was 0.74 and 0.95 and 1.05 and 0.91 and 0.77 and 0.84, the “RNU24174_DB71_seg8 normalized Real Time PCR” value [3] was 1.99 and 2.06 and 4.39 and 3.5 and 2.2 and 2.91 and the “W41270_DB81_seg11 normalized Real Time PCR” value [3] was 0.84 and 0.44 and 0.77 and 1.64 and 0.54 and 0.5. The “W64472_DB81_seg2 normalized Real Time PCR” value [3] was 0.8 and 0.69 and 1.73 and 1.71 and 0.83 and 1.15, the “W83813_DB81_seg27 normalized Real Time PCR” value [3] was 0.58 and 0.61 and 0.63 and 0.51 (2×) and 0.55 and the “AA686189_DB71_seg6 normalized Real Time PCR expression” value (day28, individual animals) was 1.5 and 0.62 and 0.04 and 6.37 and 0.92 and 1.28. The “AI045075_DB71_seg6 normalized Real Time PCR expression” value (day28, individual animals) was 0.66 and 0.82 and 1.6 and 1.49 and 0.9 and 0.87, the “AI454051_DB71_seg0 normalized Real Time PCR expression” value (day28, individual animals) was 0.85 and 0.92 and 0.87 and 0.96 and 1.11 and 0.72 and the “H31045_DB71_seg5 normalized Real Time PCR expression” value (day28, individual animals) was 2.16 and 2.58 and 0.51 and 1.57 and 2.33 and 2.12.
